Test results as given in patent publication US12509421B2, “Preparation and application of deuterated 4-phenyl-4-piperidinols” (priority 2022, dated 2025).
“Also recorded” adds a separate entry of the source. Where two headings read alike, the source gives them in different places.

Assays:
[1] = Metabolic stability in liver microsomes, human; settings: human, microsomes, pH 7.4
Description: (§1) The solution B is slowly dropped into solution A, and the pH is adjusted to 7.40±0.05.
(§2) • Control drug: 4 μL Verapamil solution (10 mM) is added with 96 μL DMSO and diluted to 400 μM; • Compound to be tested: 4 μL compound to be tested (10 mM) is added with 96 μL normal saline and diluted to 400 μM.
(§3) The microsomes are stored in the refrigerator at −80° C., thawed at room temperature after being taken out, and mixed gently.
(§4) […] PBS (100 mm, pH=7.4) solution is added to the negative sample. The solution is put into water bath at 37° C. and pre-incubated for 10 minutes; • B) After incubation, 2 μL reference drug or compound to be tested (400 μM) are added into each well to start the reaction.

[2] = Metabolic stability in liver microsomes, dog; settings: dog, microsomes, pH 7.4
Description: as §1, §2, §3, §4

[3] = Metabolic stability in liver microsomes, rat; settings: rat, microsomes, pH 7.4
Description: as §1, §2, §3, §4

[4] = Metabolic stability in liver microsomes, mouse; settings: mouse, microsomes, pH 7.4
Description: as §1, §2, §3, §4

[5] = molecular target: T1, hERG potassium channel (Homo sapiens, UniProt Q12809); settings: read-out: hERG IC50; J Med Chem.2013 24; 56 (20): 8019-31; cited from earlier work
T1 sequence (Q12809 whole entry): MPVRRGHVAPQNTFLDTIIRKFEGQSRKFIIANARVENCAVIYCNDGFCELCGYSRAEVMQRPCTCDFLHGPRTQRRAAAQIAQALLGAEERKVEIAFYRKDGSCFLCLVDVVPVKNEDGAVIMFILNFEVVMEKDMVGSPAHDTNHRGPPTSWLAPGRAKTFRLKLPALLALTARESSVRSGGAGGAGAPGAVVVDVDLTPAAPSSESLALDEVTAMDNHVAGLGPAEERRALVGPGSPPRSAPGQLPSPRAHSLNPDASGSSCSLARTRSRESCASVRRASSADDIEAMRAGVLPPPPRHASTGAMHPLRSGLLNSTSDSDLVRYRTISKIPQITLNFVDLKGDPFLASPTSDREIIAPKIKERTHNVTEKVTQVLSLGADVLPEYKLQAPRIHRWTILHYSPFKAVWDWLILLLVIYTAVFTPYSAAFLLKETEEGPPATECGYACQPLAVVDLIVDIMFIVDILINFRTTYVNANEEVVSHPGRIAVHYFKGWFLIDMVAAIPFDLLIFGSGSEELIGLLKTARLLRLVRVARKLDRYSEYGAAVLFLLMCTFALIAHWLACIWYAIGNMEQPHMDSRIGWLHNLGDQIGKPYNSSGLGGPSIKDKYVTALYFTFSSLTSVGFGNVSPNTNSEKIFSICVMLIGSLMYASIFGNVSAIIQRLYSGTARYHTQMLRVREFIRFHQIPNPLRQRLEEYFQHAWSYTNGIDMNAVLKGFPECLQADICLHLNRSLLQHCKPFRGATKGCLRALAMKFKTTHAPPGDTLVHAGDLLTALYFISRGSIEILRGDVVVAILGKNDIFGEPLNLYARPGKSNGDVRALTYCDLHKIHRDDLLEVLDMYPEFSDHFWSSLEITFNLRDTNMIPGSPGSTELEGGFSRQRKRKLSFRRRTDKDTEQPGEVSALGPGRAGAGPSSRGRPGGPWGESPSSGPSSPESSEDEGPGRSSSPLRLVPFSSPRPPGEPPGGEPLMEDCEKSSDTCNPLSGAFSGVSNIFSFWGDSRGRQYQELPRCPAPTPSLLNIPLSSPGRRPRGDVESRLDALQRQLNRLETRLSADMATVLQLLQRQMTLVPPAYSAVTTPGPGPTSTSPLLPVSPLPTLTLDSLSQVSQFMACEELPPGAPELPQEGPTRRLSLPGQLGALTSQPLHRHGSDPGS

[6] = molecular target: T1, hERG potassium channel; experiment: hERG potassium channel whole-cell patch clamp (HEK293); format: cell-based; parameters: expressed in transfected cells; host or cells: HEK293 cell line
Description: The rapidly activated potassium channel encoded by human ether-a-go-go-related gene (hERG) is an important ion channel involved in the formation of phase 3 repolarization of myocardial action potential. […] Drug-induced delayed ventricular repolarization may cause fatal arrhythmia-torsade de pointes in some cases. According to statistics, about 25-40% of the lead compounds show different degrees of hERG-related toxicity, and many drugs are withdrawn from the market because they may lead to the risk of QT interval extension. At present, National Medical Products Administration also requires hERG/IKr safety evaluation data before clinical trial application (IND) of new drugs under study. • 1. Whole-cell patch clamp technique is used to study the inhibitory effect of compounds on hERG potassium channels: • 1) the compound to be tested is stored with physiological saline prepared into 10 mM liquid. The test stock solution is diluted with physiological saline into 3 mM, 1 mM and 0.3 mM diluents in turn. […] The old culture medium removed and is washed once with PBS, then added with 1 mL TrypLE™ Express solution and incubated at 37° C. for about 0.5 minutes. When the cells are detached from the bottom of the dish, about 5 ml complete medium preheated is added at 37° C. The cell suspension is gently blown with a straw to separate the aggregated cells. The cell suspension is transferred to a sterile centrifuge tube and centrifuged at 1000 rpm for 5 minutes to collect cells. […] The clamping voltage is depolarized from −80 mV to −50 mV for 0.5 seconds (as leakage current detection), then stepped to 30 mV for 2.5 seconds, and then quickly recovered to −50 mV for 4 seconds, which can excite the tail current of hERG channel. Data are collected repeatedly every 10s to observe the effect of drugs on hERG tail current. 0.5 seconds-50 mV stimulation is used as leakage current detection. The test data are collected by IPA amplifier (Sutter Instrument) and stored in SutterPatch software.
Capillary glass tube is drawn into recording electrode by microelectrode drawing instrument. Under the inverted microscope, the microelectrode manipulator is operated to contact the recording electrode with the cell, and negative pressure suction is given to form a GΩ seal. After the GΩ seal is formed, rapid capacitance compensation is carried out, and then negative pressure is continuously applied to break the cell membrane, forming a whole cell recording mode. Then the slow capacitance is compensated and the film capacitance and series resistance are recorded. No leakage compensation is given.
When the hERG current recorded in the whole cell is stable, the drug is administered, and the next concentration is detected after each drug concentration acts for 5 minutes (or the current is stable), and multiple concentrations are detected for each test compound. The cover glass covered with cells is placed in the recording bath in an inverted microscope, and the test compound and the external liquid containing no compound flowed through the recording bath from low concentration to high concentration by gravity perfusion method, so as to act on the cells, and liquid exchange is carried out by using a vacuum pump during recording. The current detected by each cell in the external fluid without compounds is used as its own control group.
At least two cells are used to detect each concentration independently and repeatedly twice. All electrophysiological tests are conducted at room temperature.
Firstly, the current after each drug concentration and the blank control current are standardized
[formula] followed by the calculation of the inhibition rate
[formula] corresponding to each drug concentration, the average and standard deviation for each concentration, and the semi-inhibition concentration of each compound with the following equation: […]
The dose-dependent effect is nonlinear fitted by the above equation, and IC50 is semi-inhibitory concentration.

[7] = molecular target: CYP 2C9 (Homo sapiens, UniProt P11712); experiment: Inhibition of cytochrome P450 enzyme in human liver microsomes, CYP 2C9
CYP 2C9, sequence (P11712 whole entry): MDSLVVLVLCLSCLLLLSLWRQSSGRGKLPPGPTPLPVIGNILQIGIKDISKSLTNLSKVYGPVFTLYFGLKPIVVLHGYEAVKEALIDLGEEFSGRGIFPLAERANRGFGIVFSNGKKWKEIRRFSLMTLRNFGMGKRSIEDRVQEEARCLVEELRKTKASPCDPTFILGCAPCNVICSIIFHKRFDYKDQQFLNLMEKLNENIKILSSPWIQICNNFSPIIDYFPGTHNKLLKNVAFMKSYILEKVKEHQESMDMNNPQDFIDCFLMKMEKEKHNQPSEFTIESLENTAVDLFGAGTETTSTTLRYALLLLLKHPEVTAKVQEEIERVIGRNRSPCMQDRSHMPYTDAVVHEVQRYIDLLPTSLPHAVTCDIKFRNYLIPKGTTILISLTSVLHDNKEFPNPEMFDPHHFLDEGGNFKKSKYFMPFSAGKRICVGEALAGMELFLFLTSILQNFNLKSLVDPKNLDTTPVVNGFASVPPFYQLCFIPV

[8] = molecular target: CYP 2D6 (Homo sapiens, UniProt P10635); experiment: Inhibition of cytochrome P450 enzyme in human liver microsomes, CYP 2D6
CYP 2D6, sequence (P10635 whole entry): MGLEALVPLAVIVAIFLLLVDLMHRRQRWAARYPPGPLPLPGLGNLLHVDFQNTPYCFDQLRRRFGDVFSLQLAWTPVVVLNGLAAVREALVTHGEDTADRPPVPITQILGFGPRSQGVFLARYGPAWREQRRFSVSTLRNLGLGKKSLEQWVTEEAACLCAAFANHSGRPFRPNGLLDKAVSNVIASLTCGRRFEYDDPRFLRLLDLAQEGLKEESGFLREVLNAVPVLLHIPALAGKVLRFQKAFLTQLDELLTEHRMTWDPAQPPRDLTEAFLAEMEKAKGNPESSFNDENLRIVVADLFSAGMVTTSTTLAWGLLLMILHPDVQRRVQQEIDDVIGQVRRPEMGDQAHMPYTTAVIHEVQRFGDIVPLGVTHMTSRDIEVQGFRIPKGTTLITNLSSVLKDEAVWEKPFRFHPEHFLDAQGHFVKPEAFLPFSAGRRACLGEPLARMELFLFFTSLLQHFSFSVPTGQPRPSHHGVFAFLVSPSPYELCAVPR

[9] = molecular target: CYP 2C19 (Homo sapiens, UniProt P33261); experiment: Inhibition of cytochrome P450 enzyme in human liver microsomes, CYP 2C19
CYP 2C19, sequence (P33261 whole entry): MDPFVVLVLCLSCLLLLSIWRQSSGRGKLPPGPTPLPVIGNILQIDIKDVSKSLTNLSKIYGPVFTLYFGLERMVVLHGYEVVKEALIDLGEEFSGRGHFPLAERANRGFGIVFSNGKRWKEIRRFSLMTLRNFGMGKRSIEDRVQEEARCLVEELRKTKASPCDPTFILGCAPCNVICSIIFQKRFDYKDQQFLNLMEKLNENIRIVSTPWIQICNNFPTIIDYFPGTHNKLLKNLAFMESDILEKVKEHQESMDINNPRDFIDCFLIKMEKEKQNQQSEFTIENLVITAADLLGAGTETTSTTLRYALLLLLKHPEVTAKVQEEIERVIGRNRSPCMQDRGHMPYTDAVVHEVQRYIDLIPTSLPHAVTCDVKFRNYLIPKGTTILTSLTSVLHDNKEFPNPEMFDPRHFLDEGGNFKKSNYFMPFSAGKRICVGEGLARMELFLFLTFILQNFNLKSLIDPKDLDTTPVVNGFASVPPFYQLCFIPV

For `COc1ccsc1CNCC[C@@]1(c2ccccn2)CCOC2(CCCC2)C1` [TRV-130, reference compound], the half-life at 2 μM [1] was 4.08 min, the microsomal CLint at 2 μM [1] was 340 µL/min/mg and the half-life at 2 μM [2] was 2.22 min. It also gave a microsomal CLint at 2 μM [2] of 624 µL/min/mg, a half-life at 2 μM [3] of 1.61 min and a microsomal CLint at 2 μM [3] of 863 µL/min/mg. For the same compound, the half-life at 2 μM [4] was 1.67 min, the microsomal CLint at 2 μM [4] was 831 µL/min/mg and the IC50 [5] was 6.2 µM. The IC50 [6] was 6.17 µM, the “hERG inhibition grade” value [6] was “moderate inhibitory effects on hERG; also recorded: μM(Moderate intensity inhibition)” and the IC50 [7] was > 50 µM. The IC50 [8] was 7.17 µM and the IC50 [9] was > 50 µM.
